# Laboratory results reported in US8648092B2, “Imidazo[1,2-a]pyridine derivatives: preparation and pharmaceutical applications” (MEI Pharma, priority 2005, dated 2014).
# Columns and labels:
# [1] = target: HDAC1 enzyme (recombinant GST-HDAC1) (Homo sapiens (Human), UniProt Q13547); experiment: In vitro HDAC assay for determination of IC50 values (BIOMOL fluorescent-based HDAC activity assay); type: biochemical; details: Flur de lys substrate, 2 h room temperature, read-out: IC50 (HDAC 1)
# How it was run: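 Recombinant human GST-HDAC1, baculovirus-expressed in SF9 cells and glutathione-purified, tested with a fluorogenic deacetylase substrate; Fluor de Lys developer added for 10 min. Fluorescence at 360 nm excitation/460 nm emission; IC50 fitted from a concentration series.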
# Colo205 cells = experiment: Cell-based proliferation assay for determination of GI50 values (CyQUANT); set-up: species or system human; details: Homo sapiens
# How it was run: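 Colo205 cells in RPMI 1640 with 5% FBS, seeded 5000/well and grown 24 h at 37 °C. Exposure to compound lasted 96 h, with growth read by CyQUANT. GI50 = concentration giving 50% growth inhibition, from dose-response curves.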
# Sequence of HDAC1 enzyme (recombinant GST-HDAC1) (Q13547 whole entry): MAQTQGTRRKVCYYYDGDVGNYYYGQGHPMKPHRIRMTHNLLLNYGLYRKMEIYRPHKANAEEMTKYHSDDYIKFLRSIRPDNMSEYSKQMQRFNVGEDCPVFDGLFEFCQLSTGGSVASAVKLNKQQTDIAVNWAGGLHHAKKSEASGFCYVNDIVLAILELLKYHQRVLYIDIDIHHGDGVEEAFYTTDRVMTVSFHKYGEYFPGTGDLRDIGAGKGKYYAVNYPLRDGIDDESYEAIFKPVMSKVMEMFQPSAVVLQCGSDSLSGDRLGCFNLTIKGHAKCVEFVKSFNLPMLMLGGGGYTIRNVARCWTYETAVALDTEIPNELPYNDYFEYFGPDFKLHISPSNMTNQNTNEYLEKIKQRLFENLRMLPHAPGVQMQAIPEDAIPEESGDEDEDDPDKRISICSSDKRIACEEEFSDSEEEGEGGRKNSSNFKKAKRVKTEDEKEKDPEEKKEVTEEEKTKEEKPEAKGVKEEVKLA
SMILES,IC50 [1] [nM],"GI50 (Colo205 cells; COLO 205, 96 h treatment) [nM]","GI50 (Colo205 cells; COLO 205, 96 h, 96 h treatment) [nM]"
"CCN(CC)CCNCc1c(-c2ccccc2)nc2cc(/C=C/C(=O)NO)ccn12 [Compound 47, 3-{3-[(2-Diethylamino-ethylamino)-methyl]-2-phenyl-imidazo[1,2a]pyridin-7-yl}-N-hydroxy-acrylamide]",650,30000,
"O=C(/C=C/c1ccn2c(CNCC(F)(F)F)c(-c3ccccc3)nc2c1)NO [Compound 46, N-Hydroxy-3-{2-phenyl-3-[(2,2,2-trifluoro-ethylamino)-methyl]-imidazo[1,2-a]pyridin-7-yl}-acrylamide]",> 10000,11000,
"CCN(CC)Cc1c(-c2ccccc2)nc2cc(C(=O)NO)ccn12 [Compound 79, 3-Diethylaminomethyl-2-phenyl-imidazo[1,2-a]pyridine-7-carboxylic acid hydroxyamide]",> 10000,> 100000,
"CCCN(C)Cc1c(C(C)(C)C)nc2cc(/C=C/C(=O)NO)ccn12 [Compound 50, 3-{2-tert-Butyl-3-[(methyl-propyl-amino)-methyl]-imidazo[1,2-a]pyridin-7-yl}-N-hydroxy-acrylamide]",520,2400,
"CCCCCCc1nc2cc(C=CC(=O)NO)ccn2c1NCCC(=O)NC(C)(C)C [Compound 22, 3-[3-(2-tert-Butylcarbamoyl-ethylamino)-2-hexyl-imidazo[1,2-a]pyridin-7-yl]-N-hydroxy-acrylamide]",140,19000,
"CCN(Cc1c(C(C)(C)C)nc2cc(/C=C/C(=O)NO)ccn12)CC1CC1 [Compound 97, 3-{2-tert-Butyl-3-[(cyclopropylmethyl-ethyl-amino)-methyl]-imidazo[1,2-a]pyridin-7-yl}-N-hydroxy-acrylamide]",330,2100,
"CCCCc1nc2cc(/C=C/C(=O)NO)ccn2c1CN(CC)CCCC [Compound 77, 3-{2-Butyl-3-[(butyl-ethyl-amino)-methyl]-imidazo[1,2-a]pyridin-7-yl}-N-hydroxy-acrylamide]",60,160,
"CCCCc1nc2cc(/C=C/C(=O)NO)ccn2c1CN(CCC)CCC [Compound 74, 3-(2-Butyl-3-dipropylaminomethyl-imidazo[1,2-a]pyridin-7-yl)-N-hydroxy-acrylamide]",200,610,
"O=C(/C=C/c1ccn2c(CNC3CC3)c(-c3ccccc3)nc2c1)NO [Compound 62, 3-(3-Cyclopropylaminomethyl-2-phenyl-imidazo[1,2-a]pyridin-7-yl)-N-hydroxy-acrylamide]",310,2500,
"CCCCCCc1nc2ccc(/C=C/C(=O)NO)cn2c1NCCC(=O)NCC [Compound 18, (E)-3-(3-(3-(ethylamino)-3-oxopropylamino)-2-hexylimidazo[1,2-a]pyridin-6-yl)-N-hydroxyacrylamide]",630,12000,
"C#CCNC(=O)CCNc1c(CCCCCC)nc2cc(/C=C/C(=O)NO)ccn12 [Compound 26, 3-[2-Hexyl-3-(2-prop-2-ynylcarbamoyl-ethylamino)-imidazo[1,2-a]pyridin-7-yl]-N-hydroxy-acrylamide]",140,7900,
"CCN(Cc1c(C(C)(C)C)nc2cc(/C=C/C(=O)NO)ccn12)CC1CCCCC1 [Compound 98, 3-{2-tert-Butyl-3-[(cyclohexylmethyl-ethyl-amino)-methyl]-imidazo[1,2-a]pyridin-7-yl}-N-hydroxy-acrylamide]",190,,1100
"COCCNc1c(CC(C)CC(C)(C)C)nc2ccc(/C=C/C(=O)NO)cn12 (centres unmarked) [Compound 15, (E)-N-hydroxy-3-(3-(2-methoxyethylamino)-2-(2,4,4-trimethylpentyl)imidazo[1,2-a]pyridin-6-yl)acrylamide]",760,16000,
"O=C(/C=C/c1ccn2c(CNCC3CC3)c(-c3ccccc3)nc2c1)NO [Compound 61, 3-{3-[(Cyclopropylmethyl-amino)-methyl]-2-phenyl-imidazo[1,2-a]pyridin-7-yl}-N-hydroxy-acrylamide]",80,560,
"CC1CN(Cc2c(-c3ccccc3)nc3cc(/C=C/C(=O)NO)ccn23)CC(C)O1 (centres unmarked) [Compound 55, 3-[3-(2,6-Dimethyl-morpholin-4-ylmethyl)-2-phenyl-imidazo[1,2-a]pyridin-7-yl]-N-hydroxy-acrylamide]",2400,9300,
"CCCCCCc1nc2cc(/C=C/C(=O)NO)ccn2c1NCCC(=O)N(C)CCN(C)C [Compound 32, 3-(3-{2-[(2-Dimethylamino-ethyl)-methyl-carbamoyl]-ethylamino}-2-hexyl-imidazo[1,2a]pyridin-7-yl)-N-hydroxy-acrylamide]",240,2800,
"CCCCCCc1nc2cc(/C=C/C(=O)NO)ccn2c1NCCC(=O)NC(CO)C(C)C (centres unmarked) [Compound 27, 3-{2-Hexyl-3-[2-(1-hydroxymethyl-2-methyl-propylcarbamoyl)-ethylamino]-imidazo[1,2-a]pyridin-7-yl}-N-hydroxy-acrylamide]",180,8500,

# The next lines start with the values.
IC50 [1] [nM],"GI50 (Colo205 cells; COLO 205, 96 h treatment) [nM]","GI50 (Colo205 cells; COLO 205, 96 h, 96 h treatment) [nM]",SMILES
150,390,,"CCCCc1nc2cc(/C=C/C(=O)NO)ccn2c1CN(CC)CC(CC)CC [Compound 118, 3-(2-Butyl-3-{[ethyl-(2-ethyl-butyl)-amino]-methyl}-imidazo[1,2-a]pyridin-7-yl)-N-hydroxy-acrylamide]"
40,,180,"CCCc1nc2cc(/C=C/C(=O)NO)ccn2c1CNC(C)(C)C [Compound 123, 3-[3-(tert-Butylamino-methyl)-2-propyl-imidazo[1,2-a]pyridin-7-yl]-N-hydroxy-acrylamide]"
30,,140,"CCCCCc1nc2cc(/C=C/C(=O)NO)ccn2c1CN(CC)CCC(C)C [Compound 130, 3-(3-{[Ethyl-(3-methyl-butyl)-amino]-methyl}-2-pentyl-imidazo[1,2-a]pyridin-7-yl)-N-hydroxy-acrylamide]"
90,570,,"CCCCc1nc2cc(/C=C/C(=O)NO)ccn2c1CN(CC)CC(C)C [Compound 112, 3-{2-Butyl-3-[(ethyl-isobutyl-amino)-methyl]-imidazo[1,2-a]pyridin-7-yl}-N-hydroxy-acrylamide]"
300,2500,,"CCCN(Cc1c(C(C)(C)C)nc2cc(/C=C/C(=O)NO)ccn12)C(C)C [Compound 102, 3-{2-tert-Butyl-3-[(isopropyl-propyl-amino)-methyl]-imidazo[1,2-a]pyridin-7-yl}-N-hydroxy-acrylamide]"
40,680,,"CCCCN(CC)Cc1c(-c2ccccc2)nc2cc(/C=C/C(=O)NO)ccn12 [Compound 120, 3-{3-[(Butyl-ethylamino)-methyl]-2-phenyl-imidazo[1,2-a]pyridin-7-yl}-N-hydroxy-acrylamide]"
780,6300,,"CN(Cc1c(C(C)(C)C)nc2cc(C=CC(=O)NO)ccn12)CC(C)(C)C [Compound 104, 3-(2-tert-Butyl-3-{[(2,2-dimethyl-propyl)-methyl-amino]-methyl}-imidazo[1,2-a]pyridin-7-yl)-N-hydroxy-acrylamide]"
40,,150,"CCCCCc1nc2cc(/C=C/C(=O)NO)ccn2c1CN(CC)CCCC [Compound 129, 3-{3-[(Butyl-ethyl-amino)-methyl]-2-pentyl-imidazo[1,2-a]pyridin-7-yl}-N-hydroxy-acrylamide]"
